In patent US4185119A, “Antiallergic methods” (priority 1977, dated 1980):
Structures can show the parent of a compound that is named as a salt.

Test system: anaphylactic asthma in guinea-pigs
Assay: Inhibition test of anaphylactic asthma in guinea-pigs
Assay type: in vivo
Conditions: intraperitoneal, survived more than 7 minutes
Procedure: (c) Guinea-pig antiserum against egg albumin
A solution of egg albumin (10 mg.) in normal saline (1 ml.) was mixed with incomplete adjuvant (1 ml.) to give an emulsion. The emulsion was given subcutaneously in a single dose of 0.4 ml. divided equally (0.1 ml.) to the four pads of male Hartley strain guinea-pigs, each weighing 350-380 g.
Two weeks after the administration, a solution of egg albumin (1 mg.) in normal saline (1 ml.) was further given subcutaneously in a single dose of 0.4 ml divided equally (0.1 ml.) to the four pads of the same guinea-pigs.
Subsequently, one week and two weeks after the second adminstration, the guinea-pigs were treated in substantially the same manner as the above second administration.
One week after the final administration, blood samples were collected from the guinea-pigs and treated in substantially the same manner as described in the above item (a). The antisera thus obtained were stored at -80° C. prior to use.
(3) Inhibition test of anaphylactic asthma in guinea-pigs
To ten male Hartley strain guinea-pigs, weighing 300 g was given intravenously the guinea-pig antiserum against egg albumin (0.1 ml.), respectively. Twenty four hours after the administration, each of the guinea-pigs was put individually into each of boxes (innercapacity: 5.3 liters). A normal saline containing egg albumine (1%) was continuously sprayed with a nebulizer into the boxes.
Beforehand, one hour and 30 seconds before putting the guinea-pigs into each of the boxes, a normal saline (1 ml.) containing the prescribed amount of N-methylaurotetanine hydrochloride and carboxymethylcellulose (0.5%) was given intraperitoneally to five guinea-pigs and a normal saline (1 ml.) containing only carboxymethylcellulose (0.5%) was given intraperitoneally to each of the remaining 5 guinea-pigs. Time till the test animal was suffocated to death, was measured and when animals survived more than 7 minutes, inhibition of anaphylactic asthma were judged as effective. Survival (%) was calculated by the following formula: [formula]

**Q.** What does the source list for `COc1cc2c(cc1O)CC1c3c(cc(OC)c(OC)c3-2)CCN1C` (stereo not drawn) [N-Methyllaurotetanine hydrochloride]?
**A.** Survival (30 mg/kg): 0%; Survival (60 mg/kg): 40%; Survival (120 mg/kg): 80%
